Reference: ChEMBL document CHEMBL1201862, “PubChem BioAssay data set” (2004)
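Interpolation was linear, between the two tested concentrations surrounding the appropriate level; five concentrations were tested over 48 hours in 96-well plates. Here, GI50 denotes the concentration required for 50% inhibition of growth.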 Calls of active or inactive are those of the source. Rule as the data show it: active = GI50 up to about 1.1 µM and inactive = higher.

Assays:
Test in all cases: NCI tumour cell line growth inhibition, 48 h
SNB-19 = test system: SNB-19
SN12C = test system: SN12C
SF-268 = test system: SF-268
A549 = test system: A549
HCT-116 = test system: HCT-116
HT-29 = test system: HT-29
A498 = test system: A498
RXF 631 = test system: RXF 631
SK-OV-3 = test system: SK-OV-3
SK-MEL-2 = test system: SK-MEL-2
SK-MEL-28 = test system: SK-MEL-28
OVCAR-8 = test system: OVCAR-8
HCT-15 = test system: HCT-15
RXF 393 = test system: RXF 393
SF-295 = test system: SF-295
U-251 = test system: U-251
UACC-257 = test system: UACC-257

| SMILES | GI50 (SNB-19) | GI50 (SN12C) | GI50 (SF-268) | GI50 (A549) | GI50 (HCT-116) | GI50 (HT-29) | GI50 (A498) | GI50 (RXF 631) | GI50 (SK-OV-3) | GI50 (SK-MEL-2) | GI50 (SK-MEL-28) | GI50 (OVCAR-8) | GI50 (HCT-15) | GI50 (RXF 393) | GI50 (SF-295) | GI50 (U-251) | GI50 (UACC-257) |
| --- | --- | --- | --- | --- | --- | --- | --- | --- | --- | --- | --- | --- | --- | --- | --- | --- | --- |
| O=C(Nc1nc2ccc([N+](=O)[O-])cc2s1)C(=O)C(C1OC(=O)c2ccccc21)[N+](=O)[O-] (stereo unspecified) | 58.6 µM (inactive) | 75 µM (inactive) | 76.9 µM (inactive) | > 100 µM (inactive) | 97.5 µM (inactive) | > 100 µM (inactive) | 12.6 µM (inactive) | 70.1 µM (inactive) | 54.3 µM (inactive) | 41.5 µM (inactive) | > 100 µM (inactive) | > 100 µM (inactive) | 66.7 µM | 27.5 µM (inactive) | 91.2 µM (inactive) | 82.8 µM (inactive) | > 100 µM (inactive) |
| Cc1ccc(Cl)c(NC(=O)C(=O)C(C(=O)c2ccncc2)C2OC(=O)c3ccccc32)c1 (stereo unspecified) | – | > 100 µM (inactive) | > 100 µM (inactive) | > 100 µM (inactive) | > 100 µM (inactive) | > 100 µM (inactive) | > 100 µM (inactive) | > 100 µM (inactive) | > 100 µM (inactive) | – | > 100 µM (inactive) | > 100 µM (inactive) | > 100 µM | > 100 µM (inactive) | > 100 µM (inactive) | > 100 µM (inactive) | > 100 µM (inactive) |
| COc1cc2c[n+]3ccc4cc(OC)c(OC)cc4c3cc2cc1O | > 100 µM (inactive) | > 100 µM (inactive) | > 100 µM (inactive) | > 100 µM (inactive) | > 100 µM (inactive) | > 100 µM (inactive) | > 100 µM (inactive) | > 100 µM (inactive) | > 100 µM (inactive) | > 100 µM (inactive) | > 100 µM (inactive) | > 100 µM (inactive) | > 100 µM | > 100 µM (inactive) | > 100 µM (inactive) | > 100 µM (inactive) | > 100 µM (inactive) |
| CCOC(=O)NC(=O)c1cn(CCCOC(=O)NCCCCCCNC(=O)OCCCn2c(=O)c(C(=O)NC(=O)OCC)cn(C)c2=O)c(=O)n(C)c1=O | – | > 100 µM (inactive) | > 100 µM (inactive) | > 100 µM (inactive) | > 100 µM (inactive) | > 100 µM (inactive) | > 100 µM (inactive) | > 100 µM (inactive) | > 100 µM (inactive) | > 100 µM (inactive) | > 100 µM (inactive) | > 100 µM (inactive) | > 100 µM | 24.8 µM (inactive) | – | 61.2 µM (inactive) | > 100 µM (inactive) |
| COc1ccc(/C=[N+](\[O-])[C@H](COCc2ccccc2)c2ccccc2)cc1 | 46.7 µM (inactive) | – | 67.5 µM (inactive) | > 10 µM (inactive) | 43.3 µM (inactive) | 52.1 µM (inactive) | > 100 µM (inactive) | > 100 µM (inactive) | > 100 µM (inactive) | 30.3 µM (inactive) | 38 µM (inactive) | > 100 µM (inactive) | – | 98.9 µM (inactive) | 66.8 µM (inactive) | > 100 µM (inactive) | > 100 µM (inactive) |
| CN(CC(=O)O)S(=O)(=O)c1ccc(F)cc1 | > 100 µM (inactive) | > 100 µM (inactive) | > 100 µM (inactive) | > 100 µM (inactive) | – | > 100 µM (inactive) | > 100 µM (inactive) | > 100 µM (inactive) | > 100 µM (inactive) | > 100 µM (inactive) | > 100 µM (inactive) | > 100 µM (inactive) | > 100 µM | > 100 µM (inactive) | > 100 µM (inactive) | > 100 µM (inactive) | > 100 µM (inactive) |
| CCN(CC)c1ccc(/N=N/c2ccc([N+](=O)[O-])cc2OC(=O)/C=C/c2ccccc2)c(OC(=O)/C=C/c2ccccc2)c1 | > 24.2 µM (inactive) | 20.6 µM (inactive) | 1.93 µM (inactive) | 8.2 µM (inactive) | 3.55 µM (inactive) | > 100 µM (inactive) | > 26.9 µM (inactive) | > 100 µM (inactive) | 4.16 µM (inactive) | > 95.3 µM (inactive) | 7.03 µM (inactive) | 6.27 µM (inactive) | 19.5 µM | 42.9 µM (inactive) | 4.6 µM (inactive) | 5.43 µM (inactive) | 2.23 µM (inactive) |
| Cc1ccc(NC(=O)CCc2nnc3s/c(=C\c4cccc([N+](=O)[O-])c4)c(=O)n23)cc1 | 84.5 µM (inactive) | > 100 µM (inactive) | > 100 µM (inactive) | > 100 µM (inactive) | > 100 µM (inactive) | > 100 µM (inactive) | > 100 µM (inactive) | 60 µM (inactive) | > 100 µM (inactive) | > 100 µM (inactive) | > 100 µM (inactive) | > 100 µM (inactive) | > 100 µM | > 100 µM (inactive) | 59.2 µM (inactive) | 47.9 µM (inactive) | > 100 µM (inactive) |
| Cc1ccc(NC(=O)CC2Sc3ccccc3NC2=O)c(C)c1 (stereo unspecified) | 14.7 µM (inactive) | 38.2 µM (inactive) | 21.4 µM (inactive) | 16 µM (inactive) | 10.3 µM (inactive) | – | 14 µM (inactive) | 7.94 µM (inactive) | 15.5 µM (inactive) | 4.56 µM (inactive) | 20.1 µM (inactive) | 18.5 µM (inactive) | – | 14 µM (inactive) | 16.2 µM (inactive) | 14 µM (inactive) | 2.59 µM (inactive) |
| CC(=O)OC(=O)O/C=C\CCl | > 100 µM (inactive) | > 100 µM (inactive) | > 100 µM (inactive) | > 100 µM (inactive) | > 100 µM (inactive) | – | > 100 µM (inactive) | > 100 µM (inactive) | > 100 µM (inactive) | > 100 µM (inactive) | > 100 µM (inactive) | > 100 µM (inactive) | > 100 µM | > 100 µM (inactive) | – | > 100 µM (inactive) | > 100 µM (inactive) |
| CCc1ccccc1NC(=O)/C(CC(=O)c1c(C)[n+]([O-])c2ccccc2[n+]1[O-])=N\NS(=O)(=O)c1ccc(C)cc1 | > 100 µM (inactive) | 28.8 µM (inactive) | 25.8 µM (inactive) | 34.9 µM (inactive) | 16.8 µM (inactive) | 38.7 µM (inactive) | > 100 µM (inactive) | > 100 µM (inactive) | > 100 µM (inactive) | > 100 µM (inactive) | 47.9 µM (inactive) | 27 µM (inactive) | 33.7 µM | > 100 µM (inactive) | > 100 µM (inactive) | 27 µM (inactive) | 23.9 µM (inactive) |
